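Method: 48-hour compound exposure of cells in 96-well plates, five concentrations, linear interpolation of endpoints. TGI: total growth inhibition.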
Assays:
Assay in all cases: NCI anticancer screen, dose series, 48 h
786-0 renal = tested on: 786-0 renal
A498 renal = tested on: A498 renal
A549 NSCLC = tested on: A549 NSCLC
ACHN renal = tested on: ACHN renal
CAKI-1 renal = tested on: CAKI-1 renal
CCRF-CEM leukemia = tested on: CCRF-CEM leukemia
COLO 205 colon = tested on: COLO 205 colon
DMS 114 small cell lung = tested on: DMS 114 small cell lung
DMS 273 small cell lung = tested on: DMS 273 small cell lung
EKVX NSCLC = tested on: EKVX NSCLC
HCC-2998 colon = tested on: HCC-2998 colon
HCT-116 colon = tested on: HCT-116 colon
HCT-15 colon = tested on: HCT-15 colon
HL-60(TB) leukemia = tested on: HL-60(TB) leukemia
HOP-18 NSCLC = tested on: HOP-18 NSCLC
HOP-62 NSCLC = tested on: HOP-62 NSCLC
HOP-92 NSCLC = tested on: HOP-92 NSCLC
HT29 colon = tested on: HT29 colon
IGROV1 ovarian = tested on: IGROV1 ovarian
K-562 leukemia = tested on: K-562 leukemia
KM12 colon = tested on: KM12 colon
KM20L2 colon = tested on: KM20L2 colon
LOX IMVI melanoma = tested on: LOX IMVI melanoma
LXFL 529 NSCLC = tested on: LXFL 529 NSCLC
M14 melanoma = tested on: M14 melanoma
M19-MEL melanoma = tested on: M19-MEL melanoma
MALME-3M melanoma = tested on: MALME-3M melanoma
MOLT-4 leukemia = tested on: MOLT-4 leukemia
NCI-H226 lung = tested on: NCI-H226 lung
NCI-H23 lung = tested on: NCI-H23 lung
NCI-H460 lung = tested on: NCI-H460 lung
NCI-H522 lung = tested on: NCI-H522 lung
OVCAR-3 ovarian = tested on: OVCAR-3 ovarian
OVCAR-5 ovarian = tested on: OVCAR-5 ovarian
OVCAR-8 ovarian = tested on: OVCAR-8 ovarian
RPMI-8226 leukemia = tested on: RPMI-8226 leukemia
RXF 393 renal = tested on: RXF 393 renal
RXF-631 renal = tested on: RXF-631 renal
SF-268 CNS = tested on: SF-268 CNS
SF-295 CNS = tested on: SF-295 CNS
SF-539 CNS = tested on: SF-539 CNS
SK-MEL-2 melanoma = tested on: SK-MEL-2 melanoma
SK-MEL-28 melanoma = tested on: SK-MEL-28 melanoma
SK-MEL-5 melanoma = tested on: SK-MEL-5 melanoma
SK-OV-3 ovarian = tested on: SK-OV-3 ovarian
SN12C renal = tested on: SN12C renal
SNB-19 CNS = tested on: SNB-19 CNS
SNB-75 CNS = tested on: SNB-75 CNS
SNB-78 CNS = tested on: SNB-78 CNS
SR leukemia = tested on: SR leukemia
SW-620 colon = tested on: SW-620 colon
TK-10 renal = tested on: TK-10 renal
U251 CNS = tested on: U251 CNS
UACC-257 melanoma = tested on: UACC-257 melanoma
UACC-62 melanoma = tested on: UACC-62 melanoma
UO-31 renal = tested on: UO-31 renal
XF 498 CNS = tested on: XF 498 CNS
DLD-1 colon = tested on: DLD-1 colon
OVCAR-4 ovarian = tested on: OVCAR-4 ovarian

Molecule `C=C1C(=O)C23CC1CCC2C12CO[C@@H]4OCC(C)(CC[C@@H]1OC3=O)C42` (stereo not given in full) has a TGI (786-0 renal) of 5.71 µM, a TGI (A498 renal) of 34.8 µM and a TGI (A549 NSCLC) of 25.1 µM. For the same molecule, the TGI (ACHN renal) was 9.4 µM, the TGI (CAKI-1 renal) was 5.33 µM and the TGI (CCRF-CEM leukemia) was 12.1 µM. The TGI (COLO 205 colon) was 4.34 µM, the TGI (DMS 114 small cell lung) was 4.16 µM and the TGI (DMS 273 small cell lung) was 19.6 µM. For the same molecule, the TGI (EKVX NSCLC) was 32.1 µM, the TGI (HCC-2998 colon) was 30.9 µM and the TGI (HCT-116 colon) was 6.33 µM. The TGI (HCT-15 colon) was 7.88 µM, the TGI (HL-60(TB) leukemia) was 19.5 µM and the TGI (HOP-18 NSCLC) was 15.5 µM. The TGI (HOP-62 NSCLC) was 43.4 µM, the TGI (HOP-92 NSCLC) was 5.78 µM and the TGI (HT29 colon) was 10.3 µM. The TGI (IGROV1 ovarian) was 14.1 µM, the TGI (K-562 leukemia) was greater than 100 µM and the TGI (KM12 colon) was 17.3 µM. For the same molecule, the TGI (KM20L2 colon) was 17.5 µM, the TGI (LOX IMVI melanoma) was 3.44 µM and the TGI (LXFL 529 NSCLC) was 9.39 µM. The TGI (M14 melanoma) was 2.88 µM, the TGI (M19-MEL melanoma) was 19.6 µM and the TGI (MALME-3M melanoma) was 4.14 µM. The TGI (MOLT-4 leukemia) was 9.7 µM, the TGI (NCI-H226 lung) was 38.4 µM and the TGI (NCI-H23 lung) was 16.6 µM. The TGI (NCI-H460 lung) was 17.5 µM, the TGI (NCI-H522 lung) was 2.33 µM and the TGI (OVCAR-3 ovarian) was 16.6 µM. The TGI (OVCAR-5 ovarian) was 29.2 µM, the TGI (OVCAR-8 ovarian) was 9.78 µM and the TGI (RPMI-8226 leukemia) was 19 µM. The TGI (RXF 393 renal) was 6.72 µM, the TGI (RXF-631 renal) was 47.8 µM and the TGI (SF-268 CNS) was 12.7 µM. For the same molecule, the TGI (SF-295 CNS) was 30.9 µM, the TGI (SF-539 CNS) was 14.8 µM and the TGI (SK-MEL-2 melanoma) was 16.9 µM. The TGI (SK-MEL-28 melanoma) was 4.41 µM, the TGI (SK-MEL-5 melanoma) was 28.3 µM and the TGI (SK-OV-3 ovarian) was 40.1 µM. The TGI (SN12C renal) was 21.3 µM, the TGI (SNB-19 CNS) was 20.3 µM and the TGI (SNB-75 CNS) was 30.8 µM. For the same molecule, the TGI (SNB-78 CNS) was 9.57 µM, the TGI (SR leukemia) was 26.4 µM and the TGI (SW-620 colon) was 7.04 µM. For the same molecule, the TGI (TK-10 renal) was 13.8 µM, the TGI (U251 CNS) was 27.4 µM and the TGI (UACC-257 melanoma) was 10.2 µM. The TGI (UACC-62 melanoma) was 17.3 µM, the TGI (UO-31 renal) was 23.6 µM and the TGI (XF 498 CNS) was 3.41 µM.
Molecule `COc1nc(N)c(C(=O)CCl)c(=O)n1C` has a TGI (A498 renal) of 32.4 µM, a TGI (A549 NSCLC) of 51.6 µM and a TGI (ACHN renal) of 48.5 µM. For the same molecule, the TGI (CAKI-1 renal) was 23.4 µM, the TGI (CCRF-CEM leukemia) was 79.8 µM and the TGI (COLO 205 colon) was 30.1 µM. The TGI (DLD-1 colon) was 27.6 µM, the TGI (DMS 114 small cell lung) was 33.9 µM and the TGI (EKVX NSCLC) was 31.7 µM. The TGI (HCC-2998 colon) was 23 µM, the TGI (HCT-116 colon) was 31.3 µM and the TGI (HL-60(TB) leukemia) was 5.61 µM. For the same molecule, the TGI (HOP-18 NSCLC) was 31.2 µM, the TGI (HOP-92 NSCLC) was 16.1 µM and the TGI (HT29 colon) was 32.3 µM. The TGI (IGROV1 ovarian) was 30.2 µM, the TGI (K-562 leukemia) was 34.3 µM and the TGI (KM12 colon) was 30.4 µM. For the same molecule, the TGI (KM20L2 colon) was 50.1 µM, the TGI (LOX IMVI melanoma) was 20.8 µM and the TGI (LXFL 529 NSCLC) was 27.1 µM. For the same molecule, the TGI (MALME-3M melanoma) was 22.7 µM, the TGI (MOLT-4 leukemia) was 44.7 µM and the TGI (NCI-H226 lung) was 20.5 µM. The TGI (NCI-H460 lung) was 39.5 µM, the TGI (OVCAR-4 ovarian) was 33.2 µM and the TGI (OVCAR-5 ovarian) was 37.2 µM. For the same molecule, the TGI (OVCAR-8 ovarian) was 52.8 µM, the TGI (RPMI-8226 leukemia) was 32.4 µM and the TGI (RXF 393 renal) was 20.6 µM. It also gave a TGI (RXF-631 renal) of 31.6 µM, a TGI (SF-268 CNS) of 55.2 µM and a TGI (SF-295 CNS) of 29.4 µM. It also gave a TGI (SF-539 CNS) of 32.6 µM, a TGI (SK-MEL-2 melanoma) of 25.1 µM and a TGI (SK-MEL-28 melanoma) of 26.4 µM. For the same molecule, the TGI (SK-MEL-5 melanoma) was 28.5 µM, the TGI (SN12C renal) was 45.2 µM and the TGI (SNB-19 CNS) was 52 µM. The TGI (SNB-75 CNS) was 30.3 µM, the TGI (SNB-78 CNS) was 40.2 µM and the TGI (SR leukemia) was 42.4 µM. The TGI (SW-620 colon) was 28.5 µM, the TGI (TK-10 renal) was 29 µM and the TGI (U251 CNS) was 29.9 µM. The TGI (UACC-257 melanoma) was 31.3 µM, the TGI (UO-31 renal) was 67 µM and the TGI (XF 498 CNS) was 32.6 µM.

From PubChem BioAssay (NCI)
